In data set [1] the test system is artemisinin-resistant plasmodium (Pf lek122). Briefly: malaria treatment in humanized mice infected with artemisinin-resistant plasmodium. It is filed as in vivo. Particulars: i.p. on days 21-25, humanized NOG-SCID mice. An excerpt: AP2-PIPA1, which was designed in the same manner as in Example 1, was used to verify an inhibitory effect in vivo. Mice wherein red blood cells had been replaced with human red blood cells were infected with an artemisinin-resistant plasmodium and a therapeutic effect was examined in the thus-infected mice. The effect was verified in the case of administration of a PIPA alone and the case of combined administration with artemisinin.
Humanized mice were created by injecting human red blood cells (RBCs) into NOG-SCID mice. One milliliter of 50% HCT, A+ve red blood cells prepared with 0.5% Albumax and 3.1 mM hypoxanthine was injected into the NOG-SCID mice once daily for 3 weeks until 80% of the human red blood cells were established. The humanized mice were then infected with an artemisinin-resistant plasmodium (Pf lek122) by 4×10^7 RBCS infected with synchronized ring-stage parasites, and checked for parasitemia by determining a rate of Giemsa-stain positive RBCs from the infected mice. On days 21, 22, 23, 24, and 25, AP2-PIPA1 (AP2-1), artemisinin, or both were injected i.p. at the indicated dose.

Data set [2] deals with dsDNA containing the target sequence TGCATG (SEQ ID NO: 1), AP2-Sc binding sequence. Briefly: binding affinity of PIPA to dsDNA containing the target sequence. Set-up: species or system P. falciparum. As to the method: FIG. 1b is a schematic diagram showing a DNA fragment used in one embodiment of the present disclosure to analyze a binding strength of AP2-PIPA1 to its target sequence;
(§1) Next, a binding affinity of a PIPA to dsDNA containing the target sequence for the AP2-PIPA (FIG. 1b) was verified. As designed, the AP2-PIPA1 was bound to the target sequence with a high binding activity, that is, a Kd value of 4.0 nM (FIG. 1c). Consistent with previous reports of low off-target toxicity of a PIPA, the AP2-PIPA was not toxic in either mouse cell lines (Raw264.7 cells, NIH3T3 cells) or human cell lines (U937 cells, A549 cells) (FIG. 2a and FIG. 2b). These analysis results support safety of a PIPA at least in the dose range in vitro.

In a further data set the test system is U937 cells, A549 cells. Briefly: cytotoxicity in human cell lines (DNA release, LDH activity in culture supernatant). Particulars: DNA release and LDH activity in culture supernatant. It is filed as cell-based. As to the method: as §1
For data set [3], the system named is artemisinin-resistant plasmodium strain, various Plasmodium strains. Kind of data set: proliferation of artemisinin-resistant and other Plasmodium strains in human red blood cells in vitro. The data set is classed as cell-based. Particulars: 72 hours after infection. As to the method:
Plasmodia were cultured in red blood cells in the presence of various concentrations of a PIPA and, 72 hours later, parasitemia was assessed;
An effect of the AP2-PIPA on proliferation of an artemisinin-resistant strain in vitro was further examined (FIG. 4). Human red blood cells were infected with various Plasmodium strains and cultured in the presence or absence of the AP2-PIPA at various concentrations. Parasitemia was evaluated at 72 hours after the infection to verify a degree of proliferation of Plasmodium treated with various concentrations of the AP2-PIPA, and an IC50 value for the AP2-PIPA in each Plasmodium strain was calculated from the above results. As a result, the AP2-PIPA1 inhibited proliferation of the artemisinin-resistant plasmodium strain with a lower IC50.

Data set [4] is described as follows: toxicity of a single intraperitoneal administration in mice. It is filed as in vivo. As to the method:
Toxicity of a single intraperitoneal administration of AP2-PIPA1 was studied in mice. […] Observation of viability and general conditions, measurement of body weight, a hematology test, a blood chemistry test, and necropsy were performed as toxicity assessment indices. […] However, the value for each individual in these groups falls within a background value (34 to 58 IU/L) and thus the changes are determined to be due to physiological variation.
Furthermore, toxicity of a single intraperitoneal administration of the AP2-PIPA1 was studied in mice. […] Observation of viability and general conditions, measurement of body weight, a hematology test, a blood chemistry test, and necropsy were performed as toxicity assessment indices. […] However, the value for each individual in these groups falls within a background value (34 to 58 IU/L) and thus the changes are determined to be due to physiological variation.

Data set [5] has as its system Raw264.7 cells, NIH3T3 cells. Briefly: cytotoxicity in mouse cell lines (DNA release, LDH activity in culture supernatant). It is filed as cell-based. As to conditions: mouse cell lines Raw264.7, NIH3T3; DNA release and LDH activity in culture supernatant. As to the method: as §1
Data set [6] deals with P. falciparum 3D7 laboratory strain. Briefly: proliferation and life cycle of P. falciparum 3D7 at blood stage in vitro (Giemsa staining, FACS). It is filed as cell-based. As to conditions: for life cycle of P. falciparum (microscopic observation, Giemsa staining): 24 and 48 hours after infection; for transition to schizont stage / schizont formation: in vitro culture. As to the method: Then, an effect of the AP2-PIPA on proliferation of a P. falciparum 3D7 laboratory strain at a blood stage in vitro was examined. Human red blood cells were infected with P. falciparum and cultured in the presence or absence of the AP2-PIPA. Microscopic observation with Giemsa staining and quantitative count of parasites and their stages by FACS analysis were performed at 24 and 48 hours after the infection.

The nature of data set [7]: toxicity of multiple administrations in mice. It is filed as in vivo. As to conditions: once daily for 7 days orally or intraperitoneally. As to the method:
Mice received various doses of AP2-PIPA1 once daily for 7 days orally or intraperitoneally. On day 8, blood was collected and AST and ALT were measured. Significant difference tests were performed for the 3 mg/kg and 10 mg/kg dose groups relative to the control group for each route of administration.
Furthermore, toxicity of multiple administrations of the AP2-PIPA1 was studied in mice. Mice received various doses of the AP2-PIPA1 once daily for 7 days orally or intraperitoneally. On day 8, blood was collected and AST and ALT were measured (FIG. 5b). Significant difference tests were performed for the 3 mg/kg and 10 mg/kg dose groups relative to the control group for each route of administration.

Data set [8] deals with Plasmodium berghei strain. Briefly: mouse infection experiment, parasitemia. It is filed as in vivo. Particulars: intraperitoneal. As to the method: Furthermore, an effect of the AP2-PIPA1 was verified in a mouse infection experiment. Mice were infected with a Plasmodium berghei strain and received the AP2-PIPA1 intraperitoneally at each time point (day 1, day 2, day 3, day 4, day 5, day 6, and day 7) shown in the upper schematic diagram in FIG. 6. Blood was collected at 11 or 13 days after the infection to assess parasitemia. […] Multiple administrations of a high dose, i.e., 30 mg/kg are believed to cause toxicity.

In another data set the test system is Plasmodium spp. Particulars: known; cited from earlier work.
Where [9] appears, read: single intraperitoneal administration 5, 10, 20 mg/kg, observed 7 days.
Where [10] appears, read: 3 and 10 mg/kg vs control, blood on day 8.
Setting [11] is: 30 mg/kg dose group, multiple administrations.

Take `CC(=O)Nc1cc(C(=O)Nc2cc(C(=O)NCCC(=O)Nc3cn(C)c(C(=O)Nc4cc(C(=O)NCCCC(=O)Nc5cn(C)c(C(=O)Nc6cc(C(=O)Nc7cc(C(=O)NCCC(=O)Nc8cc(C(=O)NCCC(=O)NCCCN(C)C)n(C)c8)n(C)c7)n(C)c6)n5)n(C)c4)n3)n(C)c2)n(C)c1` [AP2-PIPA1]: the “therapeutic effect on malaria infection (parasitemia)” value in data set [1] (administration alone) and in data set [1] (combined administration with artemisinin) was “a therapeutic effect on malaria infection was confirmed” in each case. In data set [2], this molecule came in with a Kd of 4 nM. In addition, the “toxicity (cytotoxicity)” value with U937 cells, A549 cells was “not toxic”; in data set [5] it was “not toxic”. In data set [3] (artemisinin-resistant plasmodium strain), the “IC50, proliferation (parasitemia)” value is “lower IC50”. In [4] (mouse, in vivo, ip, 10 mg/kg), the AST activity result was “an upward trend was observed”. Further, the deaths result in [4] (setting [9]) was “No deaths were observed”. Further, the “general conditions, weight change, hematology test, blood chemistry test, autopsy” value in data set [4] (setting [9]) is listed as “no changes that were considered to be abnormal were found”. In addition, the minimum lethal dose entry in data set [4] (single intraperitoneal administration, mice) is reported as “greater than 20 mg/kg”. Also, in data set [6] (human red blood cells), the “life cycle of P. falciparum (microscopic observation, Giemsa staining)” value was “arrested a life cycle of P. falciparum at a trophozoite stage”. Also, the “morphological change (FACS analysis)” value in data set [6] (human red blood cells, at both 24 and 48 hours after infection) is listed as “a morphological change was arrested at the trophozoite stage”. Also, the “transition to schizont stage / schizont formation” value in data set [6] was “specifically inhibits transition to a schizont stage”; in data set [6] (listed as AP2-PIPA), “strongly inhibit schizont formation”. Also, the “toxicity of multiple administrations” value in data set [7] (dose range examined) is recorded as “not prominently toxic”. Further, in [7] (setting [10]), the ALT result was “no significant difference”. In addition, in [7] (setting [10]), the AST entry is given as “no significant difference”. Also, the mouse death result in data set [8] (setting [11]) was “mouse death”. Further, the parasitemia result in data set [8] (setting [11]) is given as “suppression of parasitemia”; in data set [8] (day 1 to day 7, blood at 11 or 13 days after infection) it was “dose-dependent suppression of parasitemia”.

With `CC(=O)Nc1cc(C(=O)Nc2cc(C(=O)NCCC(=O)Nc3cn(C)c(C(=O)Nc4cc(C(=O)NCCCC(=O)Nc5cn(C)c(C(=O)Nc6cc(C(=O)Nc7cc(C(=O)NCCC(=O)Nc8cc(C(=O)NCCC(=O)NCCCN(C)C)n(C)c8)n(C)c7)n(C)c6)n5)n(C)c4)n3)n(C)c2)n(C)c1` [AP2-PIPA2], in [3] (any of the Plasmodium strains), the “inhibitory effects on proliferation (parasitemia)” value is on record as “no inhibitory effects”. Further, the “life cycle of P. falciparum (microscopic observation, Giemsa staining)” value in [6] (human red blood cells) is “thought to be effective at a higher concentration range than that used in this experiment”.

`Cc1nccnc1N1CCN(S(=O)(=O)c2ccc(-c3ccc(=O)[nH]n3)s2)CC1` [MBX-4055]: the “proliferation of Plasmodium spp.” value in the data set on Plasmodium spp. is “known to inhibit proliferation of Plasmodium spp”.

On to `C[C@@H]1CC[C@H]2[C@@H](C)C(=O)O[C@@H]3O[C@@]4(C)CC[C@@H]1[C@]32OO4` [artemisinin, reference compound], for which, in data set [1] (administration alone), the “therapeutic effect on malaria infection (parasitemia)” value was “an effect of artemisinin could not be observed”.
